Patent publication EP1200114B1, “PPAR DELTA INHIBITORS FOR THE TREATMENT OF CARDIOVASCULAR DISEASES” (priority 1999, dated 2001)
Entries after “also recorded” stand apart in the source; their conditions may differ.

Tests used:
parental THP-1 cells [1] = experiment: PMA-induced differentiation (adherence to culture dish) of parental THP-1 cells; type: cell-based, human; conditions: incubated with PMA and inhibitor
Procedure: (§1) Cells were treated overnight with 5ng/ml PMA and scored for differentiation (adherence to culture dish) and viability (trypan blue exclusion).
(§2) Parental and PPARδ anti-sense cells were incubated with PMA and an inhibitor of PKC activity (Bis) and two inhibitors of PLA2 activity (OBAA and mepacrine). These inhibitors were included at concentrations used in previous studies for specific inhibition.

[2] = tested on: PPARδ anti-sense cell line; experiment: Viability (trypan blue exclusion) of PPARδ anti-sense cells treated with PMA; type: cell-based, human; conditions: incubated with PMA and inhibitor
Procedure: as §1, §2

THP-1 cells = experiment: THP-1 foam cell model (PMA-activated cells, Oil Red O lipid staining); type: cell-based, human; conditions: for lipid accumulation: PMA-treated THP-1 cells, Oil Red O staining; for foam cell formation: adherent PMA-treated THP-1 cells
Text: Treatment was continued for 3 days and the cells fixed in 0.66M paraformaldehyde, stained with a saturating solution of Oil Red O and then counterstained with haematoxylin.

LNCaP = experiment: Prostate cell growth, colorimetric cell number assay; type: cell-based; conditions: low concentrations, 7 days
Procedure: (§3) Cell lines were plated at 2,500 cells per well in a 24-well plate and cultured in RPMI containing 5% dextran-coated charcoal-treated FCS. Increasing concentrations of Compound F or LG 100268 were included in the culture medium and the cultures were maintained for 7 days with changes of drugs and medium every 48 hours.

PNT1A = experiment: as above; type: cell-based; conditions: low concentrations, 7 days
Procedure: as §3

parental THP-1 cells [3] = tested on: parental THP-1 cells
Procedure: as §1, §2

ApoE = ApoE mRNA by TAQMAN in THP-1 cells; type: cell-based, human; conditions: parental THP-1 cells treated with PMA and linoleic acid
Procedure: Total RNA was prepared from parental THP-1 cells treated with PMA (THP-1), or PMA and linoleic acid (THP-1+FA), and untreated PPARδ over-expressing cell line (DELTA). cDNA was prepared from these RNA samples and the cDNA was analysed for ApoE sequences using TAQMAN procedures. The result shown is relative expression normalised for β-actin expression and the error bars represent the standard deviation in duplicate samples.

SMILES: CN(C)CCCn1cc(C2=C(c3c[nH]c4ccccc34)C(=O)NC2=O)c2ccccc21 [Bis, bisindoylmaleamide I]
- differentiation of parental THP-1 cells (parental THP-1 cells [1]): prevented
- PMA-induced "death" of the PPARδ anti-sense cell line [2]: did not block

SMILES: Cc1cc2c(cc1C1(c3ccc(C(=O)O)cn3)CC1)C(C)(C)CCC2(C)C [LG 100268]
- lipid accumulation (THP-1 cells): Increased lipid accumulation
- foam cell formation (THP-1 cells): promoted foam cell formation in co-operation with fatty acids
- growth stimulated (LNCaP): also seen
- growth stimulated (PNT1A): also seen

SMILES: CCN(CC)CCCC(C)Nc1c2ccc(Cl)cc2nc2ccc(OC)cc12 (centres unmarked) [Mepacrine, 6-chloro-9-[(4-diethylamino)-1-methylbutyl]amino-2-methoxy-acridine]
- differentiation of parental THP-1 cells (parental THP-1 cells [1]): prevented
- PMA-induced "death" of the PPARδ anti-sense cell line [2]: did not block
- toxicity in the parental cells (parental THP-1 cells [3]): sign of toxicity

SMILES: CCCCCCCCCCCCCCCCCCc1ccc(C(=O)C=CC(=O)O)cc1 [OBAA, 3-(4-octadecyl)benzoylacrylic acid]
- differentiation of parental THP-1 cells (parental THP-1 cells [1]): prevented
- PMA-induced "death" of the PPARδ anti-sense cell line [2]: did not block

SMILES: Cc1cccc(Nc2cc(Cl)nc(SCC(=O)O)n2)c1C [Wy 14,643]
- foam cell formation (THP-1 cells): no effect

SMILES: CCCCC/C=C\C/C=C\CCCCCCCC(=O)O [linoleic acid]
- lipid accumulation (THP-1 cells): Increased lipid accumulation; also recorded: leads to the accumulation of lipid droplets in the cytoplasm
- apoE mRNA levels (ApoE): reduced
